Assay results: patent publication US8658202B2, “Coated drug delivery formulations” (Western University of Health Sciences, priority 2001, dated 2014)
Read-outs that look alike come from different tables or passages of the source. Marks after values point to notes of the source that are not given here.

How the values were obtained:
[1] = Pharmacokinetics of halofantrine enantiomers after oral gavage of proliposomal or control suspension; format: in vivo, Sprague-Dawley rats; conditions: 7 mg/kg oral gavage, rats; for AUC: AUC0-24, mean±SD; for Cmax / Tmax: mean±SD
Protocol: The pharmacokinetic parameters of the enteric coated proliposomal formulation of halofantrine were evaluated as follows. The proliposomal product was prepared as a suspension in 0.78% methylcellulose. A non-liposomal suspension formulation (control) was prepared by dispersing halofantrine powder in 1% methylcellulose. Sprague-Dawley rats were cannulated at the right jugular vein under halothane anesthesia. After an overnight rest, the rats were given 7 mg/kg of a halofantrine suspension as either the proliposomal (7 rats) or control (6 rats) formulation by oral gavage. Serial blood samples were obtained from the cannula until 48 h post-dose. A stereospecific HPLC assay was used to measure plasma concentration of halofantrine enantiomers. Noncompartmental pharmacokinetic methods were used to determine AUC0-24, Cmax and tmax. Student's unpaired t-test was used to assess significance of differences.

[2] = Comparison of preparation methods: texture of product; format: physicochemical; conditions: 12% drug, 63% lecithin (DMPC)
Text: (§1) One embodiment of the present invention was compared to a control method for producing pharmaceutical formulations. The control method used in the following examples is disclosed by Ganter in U.S. Pat. No. 5,635,206, herein incorporated by reference, at Example 1, except that the percentage of water used was 5% and 0%. To exemplar drugs which are poorly water soluble were used: glyburide and benzocaine.
(§2) The following tables summarize the protocol used and the results.

[3] = Comparison of preparation methods: absorbance in the aqueous phase (incorporation with the lipid); format: physicochemical
Text: as §1, §2
Some embodiments of the present invention have one or more of the aforementioned advantages.

[4] = Comparison of preparation methods: particle size; format: physicochemical
Text: as §1, §2

[5] = Control: halofantrine powder in 1% methylcellulose
[6] = Liposome: enteric coated proliposomal formulation

SMILES	Texture ([2]; Applicant's Method)	Texture ([2]; Control Method With 0% Water)	Texture ([2]; Control Method With 5% Water)	Absorbance ([3]; Applicant's Method)	Absorbance ([3]; Control Method With 0% Water)	Absorbance ([3]; Control Method With 5% Water)	Particle Size ([4]; Applicant's Method) [μm]	Particle Size ([4]; Control Method With 0% Water) [μm]	Particle Size ([4]; Control Method With 5% Water) [μm]	further results
CCCCN(CCCC)CCC(O)c1cc2c(Cl)cc(Cl)cc2c2cc(C(F)(F)F)ccc12 (single isomer, unassigned; (+)) [(+)-HF, halofantrine]										AUC [1, 5]: 5.2 ± 0.81^b μg × h/mL; Cmax [1, 5]: 391 ± 59.2^b ng/mL; Tmax [1, 5]: 7.0 ± 2.3 h; AUC ([1]; Liposome: enteric coated proliposomal formulation in 0.78% methylcellulose): 7.7 ± 1.8^a,b μg × h/mL; Cmax [1, 6]: 722 ± 170^a,b ng/mL; Tmax [1, 6]: 4.1 ± 2.3 h
CCCCN(CCCC)CCC(O)c1cc2c(Cl)cc(Cl)cc2c2cc(C(F)(F)F)ccc12 (single isomer, unassigned; (-)) [(−)-HF, halofantrine]										AUC ([1]; Sprague-Dawley, rat, plasma, po, 7 mg/kg, Control: halofantrine powder in 1% methylcellulose, read-out: AUC): 1900 ± 530 ng·h/mL; Cmax ([1]; Sprague-Dawley, rat, plasma, po, 7 mg/kg, Control: halofantrine powder in 1% methylcellulose, read-out: Cmax): 196 ± 42.3 ng/mL; Tmax ([1]; Sprague-Dawley, rat, plasma, po, 7 mg/kg, Control: halofantrine powder in 1% methylcellulose, read-out: Tmax): 4.6 ± 2.1 h; AUC ([1]; Sprague-Dawley, rat, plasma, po, 7 mg/kg, Liposome: enteric coated proliposomal formulation in 0.78% methylcellulose, read-out: AUC): 2600 ± 660 ng·h/mL; Cmax ([1]; Sprague-Dawley, rat, plasma, po, 7 mg/kg, Liposome: enteric coated proliposomal formulation, read-out: Cmax): 360 ± 80.5 ng/mL; Tmax ([1]; Sprague-Dawley, rat, plasma, po, 7 mg/kg, Liposome: enteric coated proliposomal formulation, read-out: Tmax): 4 ± 1.3 h
CCOC(=O)c1ccc(N)cc1 [Benzocaine, benzocaine]	Powder	Clear Solution	Clear Solution	3.7377	3.6130	3.6030	9.163	3.830	1.190	
COc1ccc(Cl)cc1C(=O)NCCc1ccc(S(=O)(=O)NC(=O)NC2CCCCC2)cc1 [Glyburide, glyburide]	Powder	Milky	Milky	1.9446	3.9141	3.8177	8.638	5.978	2.544	
